Holding throughout (assay): NCI-60 cell line screen, 48 h
Assay [1] relates to SK-MEL-2 melanoma.
Assay [2] has as its system HT29 colon.
For assay [3], the system named is NCI-H23 lung.
Assay [4] concerns TK-10 renal.
Assay [5] has as its system A498 renal.
In assay [6] the test system is UACC-257 melanoma.
Assay [7] deals with OVCAR-8 ovarian.
Assay [8] relates to SW-620 colon.
The test system of assay [9] is SK-MEL-5 melanoma.
Assay [10] deals with IGROV1 ovarian.

Each structure is given as a SMILES string. “And” between values parts separate entries of the source, which are not always exact repeats. Equal entries are not always repeated.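 48-hour exposure; five concentrations; linearly interpolated endpoints. The concentration for 50% growth inhibition is given as GI50. TGI marks complete inhibition of growth.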 A value given as a limit tells only on which side of the number the result lay.

As to `CCCCCCCCCCCC[n+]1ccc(C(N)=O)cc1`, the GI50 in assay [1] is 3.51 µM; in [2] it was 2.18 µM; in [3] it was 2.81 µM; in [4] it was 1.73 µM; in assay [5], 4.85 µM; in [6], 4.24 µM. In addition, the GI50 in assay [7] is 3.34 µM; in [8], 3.16 µM; in assay [9] it was 1.63 µM; in assay [10] it was 1.4 µM. Besides, the TGI was found to be 9.13 µM in assay [1]; 13.1 µM in [2]; 14 µM in assay [3]; 4.26 µM in assay [4]; 19.5 µM in assay [5]; 17.8 µM in [6]. The TGI in assay [7] is 13.1 µM; in [8], 14.4 µM; in assay [9], 3.05 µM; in assay [10] it was 3.5 µM.
On to `OCCNCCNc1c2ccccc2nc2oc3ccccc3c12`, for which the GI50 is 20.6 µM in assay [1]; 4 µM in assay [2]; 22.4 µM in [4]; 8.27 µM in assay [5]; 15.6 µM in assay [6]; 9.46 µM in [7]. For the same compound, the GI50 in assay [8] was 5.23 µM; in assay [9] it was 8.97 µM; in assay [10] it was 7.3 µM. The TGI in assay [1] was 43.9 µM; in [2] it was 21.5 µM; in [4], 86.8 µM; in [5], 21.9 µM; in [6], 33.2 µM; in assay [7] it was above 100 µM. Moreover, the figures for the TGI in assay [8], in assay [9] and in assay [10] were 24.4 µM, 21.1 µM and 38.3 µM, respectively.
Turning to `Clc1ccc(SCCCCCCCCCCSc2ccc(Cl)cc2)cc1`, the TGI in assay [1] was above 70.4 µM; in assay [2], above 100 µM; in assay [3] it was above 100 µM; in [4], above 77.9 µM; in [5], above 100 µM; in assay [6], above 76.1 µM. Further, the TGI was above 80.1 µM in assay [7], 70.9 µM in [8], above 69.3 µM in [9] and above 100 µM in assay [10].
With `O=C(CN1C(=O)c2ccccc2C1=O)C(O)CN1C(=O)c2ccccc2C1=O` (stereo not drawn), the TGI in assay [1], in assay [2], in [3], in [4], in assay [5] and in assay [6] was above 100 µM each time. In addition, the TGI in [7], in assay [8], in [9] and in assay [10] was above 100 µM each time.
Regarding `N#CC1=C(N)Oc2c(sc3c(F)cccc23)C1c1ccc(F)cc1` (stereo not drawn), the GI50 in assay [1] was 0.982 µM; in assay [2] it was 1.62 µM; in assay [3] it was 1.45 µM; in assay [4] it was 8.24 µM; in assay [5], 0.15 µM; in assay [6], 16.6 µM. In addition, the GI50 was 1.61 µM in assay [7], 0.531 µM in assay [8], 0.657 µM in assay [9] and 0.621 µM in [10]. Further, the TGI in [1] came out at 18.6 µM; in assay [2] it was 12.5 µM; in [3] it was 14.8 µM; in [4] it was 25.3 µM; in assay [5], 0.909 µM; in assay [6], 39.5 µM. Besides, the TGI was found to be 22.5 µM in [7], 16.3 µM in [8], 14.3 µM in assay [9] and 14.7 µM in assay [10].
As to `CCCCCN(CCCCC)CC(O)c1cc2c(c3ccccc13)CCCC2` (stereo not drawn), the GI50 in assay [1] was 2.86 µM and 11.5 µM; in assay [2], 1.35 µM and 2.22 µM; in assay [3], 3.72 µM and 5.94 µM; in assay [4], 10.6 µM and 18.2 µM; in [5], 3.34 µM and 10.8 µM; in [6], 4.88 µM and 13.8 µM. For the same compound, the GI50 in assay [7] is 11.3 µM and 14.9 µM; in assay [8], 5.99 µM; in assay [9], 2.08 µM and 3.98 µM; in [10], 3.5 µM and 6.44 µM. Besides, the TGI was 8.2 µM and 29 µM in assay [1]; 9.48 µM and 13.6 µM in assay [2]; 14.7 µM and 24.6 µM in assay [3]; 22.9 µM and 37.9 µM in assay [4]; 14.1 µM and 23.5 µM in [5]; 17.5 µM and 30.2 µM in [6]. Also, the TGI in [7] was 26.1 µM and 32.9 µM; in assay [8] it was 19.4 µM; in assay [9], 5.01 µM and 14.1 µM; in [10], 17.3 µM and 33.3 µM.
As for `S=C(Nc1ccccc1)N(Cc1ccccc1)c1ccccc1`, the TGI is 41.2 µM in assay [1]; 85.9 µM in [2]; above 100 µM in assay [3]; 80.3 µM in assay [4]; 67.2 µM in assay [5]; 54.6 µM in assay [6]. Moreover, the TGI was above 100 µM in assay [8], 28.5 µM in assay [9] and above 100 µM in assay [10].
As to `C=C(C)[C@H](O)C(O)CC(C)[C@@H]1CCC23CC12CCC1[C@@]2(C)CCC(OC(C)=O)C(C)(C)C2CC(OC2OC(COC(C)=O)C(O)C(O)C2O)[C@]13C` (stereo partly drawn), the TGI was 16.2 µM in assay [1]; 8.77 µM in assay [2]; 14 µM in assay [3]; 12.5 µM in assay [4]; 14.7 µM in [5]; 12 µM in [6]. Also, the TGI in [7] was found to be 12.8 µM; in [8], 12 µM; in [10] it was 9.54 µM.
`CC1=Nn2c(nnc2-c2ccc(N)cc2)NC(C)(C)C1`: the TGI in assay [1], in [2], in assay [3], in [4], in assay [5] and in assay [6] was above 100 µM in each case. Further, the TGI in assay [8], in assay [9] and in [10] was above 100 µM throughout.
For the compound `COC(=O)[C@@]1(O)C[C@H]2O[C@]1(C)n1c3ccccc3c3c4c(c5c6ccccc6n2c5c31)C(=O)NC4`, the GI50 is 0.0476 µM in [1]; 0.212 µM in assay [2]; 0.212 µM in [3]; 0.0284 µM in [4]; 0.0712 µM in assay [5]; 0.527 µM in [6]. Moreover, the figures for the GI50 in [7], in [8] and in assay [10] were 0.589 µM, 0.147 µM and 0.17 µM, respectively. The TGI in assay [1] is 1.61 µM; in [2], 2.09 µM; in [3] it was 2.36 µM; in assay [4], 1.39 µM; in assay [5], 0.585 µM; in assay [6], 3.33 µM. In addition, the figures for the TGI in [7], in assay [8] and in [10] were 4.08 µM, 3.11 µM and 3.28 µM, respectively.

Values taken from PubChem BioAssay (NCI).
